The values below come from BindingDB's records for doi:10.1021/jm050267e (Johnson & Johnson Pharmaceutical, 2005).

SMILES strings stand for the structures.

Test in all cases: Kinase Inhibition Assay
Test [1] has as its target Cyclin-dependent kinase 4/G1/S-specific cyclin-D1 (Mus musculus, UniProt P30285). As to the method: (§1) The enzyme was assayed with a biotinylated peptide substrate and test compounds in the presence of 10 uM ATP/[gamma-33P]ATP in a streptavidin coated FlashPlate (Perkin-Elmer, Boston, MA). Inhibition of the enzymatic activity due to the compound was measured by observing a reduced amount of 33P-gamma-ATP incorporated into the immobilized peptide relative to untreated controls. Linear regression analysis of the percent of inhibition by the test compound was used to calculate IC50 values.

Test [2] addresses Vascular endothelial growth factor receptor 2 (Rattus norvegicus, UniProt O08775). As to the method:
as §1

Test [3] addresses Cyclin-dependent kinase/G2/mitotic-specific cyclin- 1 (Homo sapiens, UniProt P06493). As to conditions: pH 8; 30 °C. As to the method:
as §1

Test [4] addresses Cyclin-A2/Cyclin-dependent kinase 2 (Homo sapiens, UniProt P24941). The protocol: as §1

Sequence of Cyclin-dependent kinase/G2/mitotic-specific cyclin- 1 (P06493 whole entry): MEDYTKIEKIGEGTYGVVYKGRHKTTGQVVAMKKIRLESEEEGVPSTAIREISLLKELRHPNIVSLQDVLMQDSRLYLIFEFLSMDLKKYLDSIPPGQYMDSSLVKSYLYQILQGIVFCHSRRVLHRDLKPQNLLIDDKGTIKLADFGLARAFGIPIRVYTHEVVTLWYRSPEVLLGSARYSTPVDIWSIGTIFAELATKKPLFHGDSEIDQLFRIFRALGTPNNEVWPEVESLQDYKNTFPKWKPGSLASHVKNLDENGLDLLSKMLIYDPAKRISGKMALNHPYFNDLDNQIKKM
Sequence of Cyclin-dependent kinase/G2/mitotic-specific cyclin- 1 (P14635 whole entry, further chain): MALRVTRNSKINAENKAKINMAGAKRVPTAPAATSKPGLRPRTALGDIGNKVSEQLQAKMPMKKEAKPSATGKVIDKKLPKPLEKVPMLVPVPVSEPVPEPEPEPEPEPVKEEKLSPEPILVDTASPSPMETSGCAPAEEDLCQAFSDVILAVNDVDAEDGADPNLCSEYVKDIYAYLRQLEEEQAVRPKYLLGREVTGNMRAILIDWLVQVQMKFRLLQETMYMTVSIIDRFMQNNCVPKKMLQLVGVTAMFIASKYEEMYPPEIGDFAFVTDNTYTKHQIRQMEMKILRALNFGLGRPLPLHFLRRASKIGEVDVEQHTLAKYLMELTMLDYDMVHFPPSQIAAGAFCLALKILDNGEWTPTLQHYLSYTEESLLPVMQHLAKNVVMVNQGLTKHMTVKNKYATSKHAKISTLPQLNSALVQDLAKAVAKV
Sequence of Cyclin-dependent kinase 4/G1/S-specific cyclin-D1 (P25322 whole entry): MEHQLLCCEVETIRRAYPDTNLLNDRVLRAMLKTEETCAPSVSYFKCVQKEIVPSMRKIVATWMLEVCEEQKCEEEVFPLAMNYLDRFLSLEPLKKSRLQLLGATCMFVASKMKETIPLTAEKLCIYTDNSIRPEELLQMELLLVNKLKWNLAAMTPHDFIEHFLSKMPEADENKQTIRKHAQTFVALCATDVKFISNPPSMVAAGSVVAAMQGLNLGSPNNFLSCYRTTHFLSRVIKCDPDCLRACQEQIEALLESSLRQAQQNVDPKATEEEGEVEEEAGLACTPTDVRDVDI
Sequence of Cyclin-dependent kinase 4/G1/S-specific cyclin-D1 (P30285 whole entry): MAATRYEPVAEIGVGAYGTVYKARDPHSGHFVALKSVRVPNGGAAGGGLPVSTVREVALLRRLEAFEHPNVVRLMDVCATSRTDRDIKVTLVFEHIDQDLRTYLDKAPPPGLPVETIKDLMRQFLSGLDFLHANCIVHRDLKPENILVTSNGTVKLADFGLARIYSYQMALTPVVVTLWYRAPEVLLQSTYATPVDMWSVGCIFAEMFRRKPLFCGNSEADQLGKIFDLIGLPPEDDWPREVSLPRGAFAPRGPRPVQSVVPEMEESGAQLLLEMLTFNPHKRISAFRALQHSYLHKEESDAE
Sequence of Vascular endothelial growth factor receptor 2 (O08775 whole entry): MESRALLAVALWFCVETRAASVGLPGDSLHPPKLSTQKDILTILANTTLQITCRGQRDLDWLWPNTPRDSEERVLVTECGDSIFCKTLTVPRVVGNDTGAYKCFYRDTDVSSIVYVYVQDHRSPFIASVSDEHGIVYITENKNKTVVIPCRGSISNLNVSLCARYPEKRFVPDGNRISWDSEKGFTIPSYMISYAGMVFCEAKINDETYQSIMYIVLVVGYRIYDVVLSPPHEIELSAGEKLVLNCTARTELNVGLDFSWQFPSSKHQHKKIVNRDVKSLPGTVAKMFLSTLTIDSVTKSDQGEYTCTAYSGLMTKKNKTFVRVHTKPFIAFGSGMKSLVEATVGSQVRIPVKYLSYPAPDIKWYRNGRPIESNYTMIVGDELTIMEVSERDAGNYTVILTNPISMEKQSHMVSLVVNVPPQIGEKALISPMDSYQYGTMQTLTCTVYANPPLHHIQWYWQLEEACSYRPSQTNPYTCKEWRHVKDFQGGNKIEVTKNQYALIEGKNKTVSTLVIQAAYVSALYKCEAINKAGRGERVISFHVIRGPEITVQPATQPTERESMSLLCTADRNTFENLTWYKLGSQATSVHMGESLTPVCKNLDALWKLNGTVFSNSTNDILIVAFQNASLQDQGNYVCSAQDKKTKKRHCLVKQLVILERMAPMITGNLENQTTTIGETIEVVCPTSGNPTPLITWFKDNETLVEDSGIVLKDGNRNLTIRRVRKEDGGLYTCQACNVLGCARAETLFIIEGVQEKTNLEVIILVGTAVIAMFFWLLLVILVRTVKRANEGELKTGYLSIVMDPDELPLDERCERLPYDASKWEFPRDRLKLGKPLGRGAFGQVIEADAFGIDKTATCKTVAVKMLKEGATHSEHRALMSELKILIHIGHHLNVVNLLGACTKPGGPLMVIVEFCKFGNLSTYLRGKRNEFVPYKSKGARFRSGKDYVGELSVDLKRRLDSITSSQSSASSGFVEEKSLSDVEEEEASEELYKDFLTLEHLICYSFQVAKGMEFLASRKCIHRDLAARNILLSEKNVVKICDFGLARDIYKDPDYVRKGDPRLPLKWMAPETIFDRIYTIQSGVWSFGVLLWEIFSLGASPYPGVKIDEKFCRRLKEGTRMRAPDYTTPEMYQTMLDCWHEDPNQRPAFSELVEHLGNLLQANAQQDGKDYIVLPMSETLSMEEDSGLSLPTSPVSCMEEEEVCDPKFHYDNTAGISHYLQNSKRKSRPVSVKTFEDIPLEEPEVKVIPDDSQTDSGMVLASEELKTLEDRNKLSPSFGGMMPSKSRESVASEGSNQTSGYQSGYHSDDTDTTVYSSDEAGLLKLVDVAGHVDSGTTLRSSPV

As for `Cc1ccc(F)c(C(=O)n2nc(Nc3ccc(S(N)(=O)=O)cc3)nc2N)c1F` [4-({5-amino-1-[(2,6-difluoro-3-methylphenyl)carbonyl]-1H-1,2,4-triazol-3-yl}amino)benzene-1-sulfonamide], the IC50 in test [1] is 190 nM; in test [2], 510 nM; in test [3], 8 nM; in test [4], 0.3 nM.
In test [3], `Nc1nc(Nc2ccc(S(N)(=O)=O)cc2)nn1C(=O)c1c(F)ccc(F)c1F` [4-[[5-Amino-1-(2,3,6-trifluorobenzoyl)-1H-1,2,4-triazol-3-yl]amino]-benzenesulfonamide] yielded an IC50 of 3.2 nM.
